What all share (format): cell-based
Experiment [1] deals with P2Y purinoceptor 1 (Homo sapiens, UniProt P47900). The experiment can be described thus: Inhibition concentration required against wild type strain P2Y1 receptor expressed in COS-7 cells is determined using [3H]-MRS2279 as radioligand.
The target in experiment [2] is P2Y purinoceptor 1 (Homo sapiens, UniProt P47900, Y203A). The experiment can be described thus: Inhibition concentration required against human Y203A (EL2) mutant strain P2Y1 receptor expressed in COS-7 cells is determined using [3H]MRS2279 as radioligand.
Experiment [3] deals with P2Y purinoceptor 1 (Homo sapiens, UniProt P47900, Y203F). The experiment can be described thus: Inhibition concentration required against human Y203F mutant strain P2Y1 receptor expressed in COS-7 cells is determined using [3H]MRS2279 as radioligand.
In experiment [4] the target is P2Y purinoceptor 1 (Homo sapiens, UniProt P47900, Y273A). Description: Inhibition concentration required against human Y273A mutant strain P2Y1 receptor expressed in COS-7 cells is determined using [3H]-MRS2279 as radioligand.
Experiment [5] deals with P2Y purinoceptor 1 (Homo sapiens, UniProt P47900, Y273F). The experiment can be described thus: Inhibition concentration required against human Y273F mutant strain P2Y1 receptor expressed in COS-7 cells is determined using [3H]MRS2279 as radioligand.
Experiment [6] addresses P2Y purinoceptor 1 (Homo sapiens, UniProt P47900, Y306A). Description: Inhibition concentration required against human Y306A mutant strain P2Y1 receptor expressed in COS-7 cells is determined using [3H]MRS2279 as radioligand.
The target in experiment [7] is P2Y purinoceptor 1 (Homo sapiens, UniProt P47900, Y306F). Description: Inhibition concentration required against human Y306F mutant strain P2Y1 receptor expressed in COS-7 cells is determined using [3H]MRS2279 as radioligand.
P2Y purinoceptor 1 (Homo sapiens, UniProt P47900, Y306F), sequence (P47900 whole entry Y306F): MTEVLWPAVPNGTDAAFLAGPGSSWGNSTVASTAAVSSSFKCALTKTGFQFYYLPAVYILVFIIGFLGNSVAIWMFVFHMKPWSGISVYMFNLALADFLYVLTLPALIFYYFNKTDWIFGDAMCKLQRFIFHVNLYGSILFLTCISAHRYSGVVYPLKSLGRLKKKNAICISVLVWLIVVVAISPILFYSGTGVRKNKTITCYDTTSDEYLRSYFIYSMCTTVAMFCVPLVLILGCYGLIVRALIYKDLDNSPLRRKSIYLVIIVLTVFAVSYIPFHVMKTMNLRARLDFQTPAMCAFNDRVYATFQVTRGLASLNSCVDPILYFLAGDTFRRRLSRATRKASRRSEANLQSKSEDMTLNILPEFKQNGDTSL

P2Y purinoceptor 1 (Homo sapiens, UniProt P47900), sequence (P47900 whole entry): as the sequence (P47900 whole entry Y306F) above, with F306Y counted along it
P2Y purinoceptor 1 (Homo sapiens, UniProt P47900, Y273F), sequence (P47900 whole entry Y273F): as the sequence (P47900 whole entry Y306F) above, with Y273F, F306Y counted along it
P2Y purinoceptor 1 (Homo sapiens, UniProt P47900, Y306A), sequence (P47900 whole entry Y306A): as the sequence (P47900 whole entry Y306F) above, with F306A counted along it
P2Y purinoceptor 1 (Homo sapiens, UniProt P47900, Y273A), sequence (P47900 whole entry Y273A): as the sequence (P47900 whole entry Y306F) above, with Y273A, F306Y counted along it
P2Y purinoceptor 1 (Homo sapiens, UniProt P47900, Y203A), sequence (P47900 whole entry Y203A): as the sequence (P47900 whole entry Y306F) above, with Y203A, F306Y counted along it
P2Y purinoceptor 1 (Homo sapiens, UniProt P47900, Y203F), sequence (P47900 whole entry Y203F): as the sequence (P47900 whole entry Y306F) above, with Y203F, F306Y counted along it

Take `CNc1ncnc2c1ncn2[C@H]1CC(OP(=O)(O)O)[C@@H](COP(=O)(O)O)O1` (single isomer, unassigned): the half-inhibitory concentration (IC50) – broadly, the concentration that gives 50% inhibition – on P2Y purinoceptor 1 [1] was determined as 210 nM; at P2Y purinoceptor 1 [2] it was 740 nM; on P2Y purinoceptor 1 [3] it was 330 nM; at P2Y purinoceptor 1 [4], 480 nM; at P2Y purinoceptor 1 [5] it was 660 nM; at P2Y purinoceptor 1 [6], 320 nM. On P2Y purinoceptor 1 [7], this molecule came in with an IC50 of 980 nM.

Values taken from ChEMBL document CHEMBL1137222, “Architecture of P2Y nucleotide receptors: structural comparison based on sequence analysis, mutagenesis, and homology modeling” (J Med Chem, 2004).
